According to patent publication US20260098037A1, “COMPOUND CONTAINING MULTI-FUSED RING STRUCTURE” (Chia Tai Tianqing Pharmaceutical Group Co., Ltd., priority 2023, published 2026):
Read-outs that look alike come from different tables or passages of the source.

What was measured:
GLP1R = GLP1R (Homo sapiens, UniProt P43220); assay: In vitro cellular cAMP expression activity assay (CRE-luciferase reporter); format: cell-based; conditions: HEK293/CRE-Luc/GLP1R cells, 6 h incubation, luciferase luminescence; read-out: HEK293/CRE-Luc/GLP-1R EC50
Protocol: HEK293/CRE-Luc/GLP1R cells (manufacturer: GenScript Biotech Corporation) in a good growth state were taken, washed with PBS, and digested with pancreatin. The digestion was terminated with a complete medium. The cells were collected into a centrifuge tube, adjusted to a cell density of 4×10^5 cells/mL using a DMEM+2% FBS medium, seeded in a 96-well plate (100 μL/well), and incubated at 37° C. for 1 h. After 1 h, the compounds were added using a nanoliter pipettor such that the final concentrations of the compounds were 10 nM-0.0006 nM. The compounds were added in duplicate, and a control was set. After the cells were incubated in a cell incubator for another 6 h, a detection reagent Luciferase (manufacturer: Vazyme Biotech, 50 μL/well) was added. The plate was left to stand at room temperature for 3 min to fully lyse the cells, and the luminescence was detected on a PerkinElmer Envision microplate reader. A dose-response curve was fitted by four-parameter analysis, and the EC50 was calculated.

[1] = In vitro stability assay in liver microsome (HLM); format: in vitro ADME, human; conditions: liver microsome 0.5 mg/mL, NADPH+MgCl2, PBS pH 7.4, 1 h
Protocol: (§1) Liver microsome incubation samples were prepared by mixing a PBS buffer (pH 7.4), a liver microsome solution (0.5 mg/mL), a test compound, and an NADPH+MgCl2 solution, and incubated at […] and 300 rpm for 1 h. Zero-hour samples were prepared by mixing a PBS buffer (pH 7.4), a liver microsome solution (0.5 mg/mL), and a test compound. An acetonitrile solution containing an internal standard was added to the samples, and supernatants were prepared by protein precipitation, diluted, and then assayed by LC/MS/MS.

[2] = In vitro stability assay in liver microsome (MLM); format: in vitro ADME, mouse; conditions: liver microsome 0.5 mg/mL, NADPH+MgCl2, PBS pH 7.4, 1 h
Protocol: as §1

[3] = system: GLP-1R humanized C57BL/6J mice; assay: Evaluation of hypoglycemic effect in mice (intraperitoneal glucose challenge); format: in vivo; conditions: intragastric dose 1 mg/kg, glucose 2 g/kg ip 5 h after administration
Source text: GLP-1R humanized C57BL/6J mice of 20-22 g were used in this study after 3 days of acclimatization. All the animals were deprived of food but not water until the end of study. Blood samples were collected from the tail tip of the mice.
The test animals were deprived of food but not water overnight before the study. The next day, blood was collected from all the animals for blood glucose testing, and the animals were randomized into a normal control group, a positive control group, and test compound groups by blood glucose and body weight, with 6 animals in each group. The groups were then given intragastric doses, and 5 h after the administration, an intraperitoneal injection of glucose solution (2 g/kg) was given. The blood glucose concentration was measured at 0.25 h, 0.5 h, 1 h, 2 h, and 3 h after the glucose injection. The blood glucose was recorded throughout the study, and the area under the blood glucose-time curve AUC0-180 min Glu was calculated.

[4] = In vivo pharmacokinetic evaluation in mice; conditions: mouse, plasma, ICR mice; for bioavailability: ig 3 mg/kg vs iv 0.5 mg/kg, read-out: Absolute bioavailability F; for MRT last: read-out: MRT(0-24); for half-life: read-out: t½ (converted); for AUC(0-t): read-out: AUC(0-24)
Protocol: ICR mice of 18-22 g were randomized into 4 groups of 9 mice after 3-5 days of acclimatization. […]
The test animals (ICR mice) were fasted from 12 h pre-dose to 4 h post-dose, and given free access to water throughout the study.
Orbital blood samples of about 0.1 mL were collected at 15 min, 30 min, 1 h, 2 h, 3 h, 4 h, 6 h, 8 h, 10 h, and 24 h post-dose for the intragastric administration, and at 5 min, 10 min, 30 min, 1 h, 2 h, 4 h, 6 h, 8 h, 10 h, and 24 h post-dose for the intravenous administration. The blood sampling was performed at 3-4 time points for each mouse, 3 mice per time point. The collected whole blood was transferred into EDTA-K2-containing centrifuge tubes and stored at 4° C., and, within 1 h, centrifuged at 4° C. at 4000 rpm for 10 min to separate the plasma. All the plasma samples were immediately stored after collection at −20° C. for testing.
30 μL of the plasma sample to be tested and a standard curve sample were pipetted and added with 300 μL of an acetonitrile solution containing an internal standard (20 ng/mL of diazepam). The mixture was shaken to mix well for 5 min, and centrifuged at 13,000 rpm for 10 min. 80 μL of the supernatant was taken and diluted with 80 μL of ultrapure water. After a thorough mixing, 2 μL of the resulting sample was taken for liquid chromatography-mass spectrometry, and the chromatogram was recorded.

GLP1R, sequence (P43220 24-463): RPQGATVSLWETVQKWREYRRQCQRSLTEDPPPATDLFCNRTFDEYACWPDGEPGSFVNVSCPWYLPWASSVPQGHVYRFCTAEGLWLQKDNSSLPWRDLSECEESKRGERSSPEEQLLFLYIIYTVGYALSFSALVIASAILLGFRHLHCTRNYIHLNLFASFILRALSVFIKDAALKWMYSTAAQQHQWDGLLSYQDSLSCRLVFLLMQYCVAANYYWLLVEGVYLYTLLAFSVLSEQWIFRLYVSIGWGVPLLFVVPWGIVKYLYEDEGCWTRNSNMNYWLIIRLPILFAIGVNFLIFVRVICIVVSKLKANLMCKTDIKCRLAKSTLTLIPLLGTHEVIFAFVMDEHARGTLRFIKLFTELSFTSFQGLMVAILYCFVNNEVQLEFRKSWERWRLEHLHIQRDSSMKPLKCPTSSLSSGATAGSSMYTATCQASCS

Row | Structure (SMILES) | EC50 (GLP1R) | HLM Remaining (T = 60 min) [1] | MLM Remaining (T = 60 min) [2] | AUC0-180 min Glu reduction (%) [3] | bioavailability ([4]; po) | MRT last ([4]; po, ig, dose 3 mg/kg) | half-life ([4]; po, ig, dose 3 mg/kg) | MRT last ([4]; iv, dose 0.5 mg/kg) | half-life ([4]; iv, dose 0.5 mg/kg) | AUC(0-inf) ([4]; po, ig, dose 3 mg/kg) | AUC(0-t) ([4]; po, ig, dose 3 mg/kg) | AUC(0-inf) ([4]; iv, dose 0.5 mg/kg) | AUC(0-t) ([4]; iv, dose 0.5 mg/kg)
1 | Cc1cc(-c2nn3c(c2-n2ccn(-c4ccc5c(c4)N(C)C(=O)C54CC4)c2=O)[C@H](C)N(C(=O)c2cc4cc([C@H]5CCOC(C)(C)C5)ccc4n2[C@@]2(c4noc(=O)[nH]4)C[C@@H]2C)CC3)cc(C)c1F [Compound 27-D] | < 0.5 nM | 86.20% | 87.54% | 75% | – | – | – | – | – | – | – | – | –
2 | Cc1cc(-n2nc3c(c2-n2ccn(-c4ccc5c(c4F)N(C)C(=O)C54CC4)c2=O)[C@H](C)N(C(=O)c2cc4cc([C@H]5CCOC(C)(C)C5)ccc4n2[C@@]2(c4noc(=O)[nH]4)C[C@@H]2C)CC3)cc(C)c1F [Compound 14] | < 0.5 nM | 89.53% | 90.40% | 79% | 37.8% | 10.1 h | 5.54 h | 6.78 h | 5.77 h | 4910 ng·h/mL | 4560 ng·h/mL | 2170 ng·h/mL | 2060 ng·h/mL
3 | Cc1cc(-n2nc3c(c2-n2ccn(-c4ccc5c(c4)N(C)C(=O)C54CC4)c2=O)[C@H](C)N(C(=O)c2cc4cc(C5CCOC(C)(C)C5)ccc4n2[C@@]2(c4noc(=O)[nH]4)C[C@@H]2C)CC3)cc(C)c1F (single isomer, unassigned) [Compound 5] | < 0.5 nM | 98.60% | 94.32% | 83% | 35.2% | 7.8 h | 4.27 h | 5.16 h | 4.6 h | 4780 ng·h/mL | 4640 ng·h/mL | 2260 ng·h/mL | 2220 ng·h/mL
